{"source": "patent US12702692B2", "about": "“Therapeutic use of calcium-activated chloride channel peptide activator” (CENTRE NATIONAL DE LA RECHERCHE SCIENTIFIQUE, priority 2020, dated 2026)", "key": {"[1]": {"test": "Acute effect on tear fluid secretion (tearing rate, phenol red thread) in naive rats", "format": "in vivo, Sprague-Dawley rats", "procedure": "Sprague-Dawley rats (males, around 200 g) were purchased from Charles River and adapted one week before processing the experiment. Two-three rats per cage were housed in a controlled environment of 12 hours intervals of light/dark cycles and free access to food and water. Animal experiments were approved by the Animal Care and Use Committee of the University of Barcelona (CEEA) and the […] de Territori i Sostenibilitat of Generalitat de Catalunya, Catalonia, Spain (319/19; 10935) and followed the ethical guidelines of the International Association for the Study of Pain. […] (also named Nter 13 peptide or […] NO: 2)) and scramble ([…] NO: 7)) peptides were purchased from GenScript Biotech (Leiden, Netherlands) and provided by CNRS. Both peptides were dissolved in Phosphate Buffered Saline (PBS) at 10 mM and used for topical ocular application (5 ul per eye). Tear fluid secretion (tearing rate) was measured using phenol red threads (Zone-Quick, Menicon, Nagoya, Japan) placed on the lower eyelid for 30 s without topical anesthesia (Trost, 2007; Acosta 2013). Tearing rate was determined with an accuracy of ±0.5 mm by measurement of the length of the red portion of the thread. After habituation of the animals, basal tearing rate was measured in both eyes before any topical application of peptides. Then, animals were divided in different groups and a solution containing vehicle (PBS), amiloride (1 mM), peptide N13 or peptide scramble was topically applied to the ocular surface (5 μl) and tearing rate was measured at 1, 3, 6, 12 and 24 h. Tearing rate measurements were done blind to the treatment received by the animals. Data are presented as mean±standard error of the mean (SEM). Statistical differences between different sets of data were assessed by performing repeated measured One-way ANOVA plus Bonferroni's post-tests (each data point in an experimental group vs. basal values) or repeated measured Two-way ANOVA plus Bonferroni's post-tests (each data point in […] group vs. Scramble or Vehicle group; or point in […] or amiloride groups vs. Vehicle group) using Prism 9 (GraphPad Software, San Diego, CA). The significance level was set at p<0.05 in all statistical analyses."}, "[2]": {"target": "T1, TMEM16A (Mus musculus, UniProt Q8BHY3)", "T1 construct": "endogenous in cells; host or cells: primary mouse kidney proximal convoluted tubule (PCT) cells", "test": "Whole-cell patch-clamp of voltage-dependent Cl- current in proximal convoluted tubule (PCT) cells", "format": "cell-based", "conditions": "for Cl- current density after inhibitor: wild type PCT cells, untreated wild type 18.07±1.21", "procedure": "(§1) mTMEM16A (kindly provided by Dr Lily Yeh Jan) and hKCNE1 cDNA were subcloned in pIRES2eGFP, pXOOM, pcDNA3.1, pCDNA3.1-GFP and pCMV-HA vectors. Truncations and mutations on KCNE1 were generated by PCR. For SiMPull experiments, HA-tags were fused to the N-terminus of sequences, whereas GFP-tags were fused to C-terminal part. HEK293T and PCT cells were transiently co-transfected using Lipofectamine 2000 or the calcium phosphate method with a total amount of 1 and 3.5 μg of DNA, respectively, and seeded on 18 mm diameter coverslips. HEK cells were maintained in DMEM with 5% FBS on poly-L-lysine-coated glass coverslips in 12 well plates. PCT cells from wild type and knock-out mice were microdissected as described previously and maintained in F12 (Gibco) on collagen-coated glass coverslips.\n(§2) HEK293T and PCT cell electrophysiology was performed 24-48 h after transfection. For whole-cell patch-clamp experiments cells were recorded in a bath solution containing (in mM) 150 NaCl, 5 KCl, 2 CaCl2 and 10 HEPES, pH 7.4 and 0.05% BSA. The glass pipettes (2-5 MΩ of resistance) were filled with (in mM) 5 NaCl, 135 CsCl, 2 MgCl2, 5 EGTA, 10 HEPES, pH 7.3. Cells were recorded either after incubation of 30 min with the peptide or during perfusion with the peptide. Total calcium concentration was calculated with Maxchelator (maxchelator.standford.edu) for a temperature of 20° C. HEK293T and PCT cells were recorded at room temperature in voltage-clamp mode using an Axopatch 200A (Molecular Devices) amplifier. Signals were filtered at 10 kHz and digitalized at 20 kHz. Whole-cell currents were elicited by voltage-ramps (from −100 to +100 mV, 1 s) and I-V stimulation pulses (from −100 to +100 mV in 20 mV increments, 1 s each pulse), holding the cells at −80 mV. Current densities were measured at +100 mV. Cell recordings, data acquisition and analysis of electrophysiology experiments were performed using pClamp software (Molecular Devices).", "T1 sequence (P23299 whole entry partner, one chain of several)": "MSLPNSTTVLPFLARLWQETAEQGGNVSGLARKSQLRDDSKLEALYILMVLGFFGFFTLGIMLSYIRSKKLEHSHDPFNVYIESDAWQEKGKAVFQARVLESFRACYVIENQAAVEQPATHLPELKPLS"}, "[3]": {"target": "T2, TMEM16A (Mus musculus, UniProt Q8BHY3)", "T2 construct": "expressed in transfected cells; host or cells: HEK293T", "T2 sequence (Q8BHY3 1-960)": "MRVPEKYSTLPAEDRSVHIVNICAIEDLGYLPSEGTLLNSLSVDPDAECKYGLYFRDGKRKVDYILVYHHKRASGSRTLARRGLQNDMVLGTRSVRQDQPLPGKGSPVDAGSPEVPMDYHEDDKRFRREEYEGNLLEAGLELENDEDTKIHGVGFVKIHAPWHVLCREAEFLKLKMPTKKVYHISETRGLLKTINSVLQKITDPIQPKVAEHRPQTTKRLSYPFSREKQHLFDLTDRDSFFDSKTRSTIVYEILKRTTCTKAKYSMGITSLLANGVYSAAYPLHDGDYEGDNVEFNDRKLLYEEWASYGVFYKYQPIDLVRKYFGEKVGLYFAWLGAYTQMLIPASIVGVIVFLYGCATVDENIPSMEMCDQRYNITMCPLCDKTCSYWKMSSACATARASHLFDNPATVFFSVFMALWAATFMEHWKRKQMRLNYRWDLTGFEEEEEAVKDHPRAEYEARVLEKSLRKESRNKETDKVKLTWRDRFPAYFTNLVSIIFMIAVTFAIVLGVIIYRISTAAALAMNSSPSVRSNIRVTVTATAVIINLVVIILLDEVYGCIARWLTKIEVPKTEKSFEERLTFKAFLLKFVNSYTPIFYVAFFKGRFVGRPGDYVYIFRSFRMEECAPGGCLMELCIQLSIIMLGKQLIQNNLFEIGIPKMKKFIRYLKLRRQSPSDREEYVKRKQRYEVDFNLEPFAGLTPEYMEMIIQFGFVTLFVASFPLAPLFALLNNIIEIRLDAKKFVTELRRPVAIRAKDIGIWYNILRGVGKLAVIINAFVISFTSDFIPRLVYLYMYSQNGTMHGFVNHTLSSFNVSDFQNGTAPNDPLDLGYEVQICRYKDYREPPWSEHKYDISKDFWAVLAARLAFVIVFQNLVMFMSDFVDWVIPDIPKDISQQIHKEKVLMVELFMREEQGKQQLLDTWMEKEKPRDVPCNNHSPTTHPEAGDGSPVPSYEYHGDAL", "test": "Whole-cell patch-clamp of HEK293T cells expressing TMEM16A", "format": "cell-based", "conditions": "for inhibition of KCNE1-TMEM16A chloride current: HEK293T co-expressing TMEM16A and KCNE1; for effect of peptide application on TMEM16A current: HEK293T cells expressing TMEM16A alone, 100 μM for Nter13, S38G and rat peptides", "procedure": "as §1, §2"}, "[4]": {"target": "T3, SK4 channel (Homo sapiens, UniProt O15554)", "T3 construct": "expressed in transfected cells", "test": "Patch-clamp of HEK293T cells transfected with SK4 and KCNE1", "format": "cell-based", "conditions": "absence of calcium", "procedure": "as §2"}, "[5]": {"target": "T4, KCNQ1 (Homo sapiens, UniProt P51787)", "T4 construct": "expressed in transfected cells", "test": "Whole-cell patch-clamp of cells transfected with KCNQ1 and KCNE1 variants", "format": "cell-based", "conditions": "co-transfected with wild type KCNQ1, current densities at +40 mV"}, "[6]": {"conditions": "KCNE1 form co-expressed with TMEM16A in HEK293T cells"}}, "data": [{"molecule": "N=C(N)NC(=O)c1nc(Cl)c(N)nc1N", "note": "[Amiloride, amiloride, reference compound]", "values": [{"measurement": "effect on tearing rate compared with Vehicle", "setting": "[1]; N13ter 10 mM, amiloride 1 mM, vehicle PBS", "result": "did not show a statistically significant effect"}, {"measurement": "eyes with increased tearing rate between 1 h to 3 h", "setting": "[1]; amiloride 1 mM topical", "result": "7 out of 14"}]}, {"molecule": "COc1ccccc1/C=N/NC(=O)COc1ccc(Cl)cc1C", "note": "[Ani9, reference compound]", "values": [{"measurement": "Cl- current density after inhibitor", "setting": "[2]; Ani9 5 μM", "result": "2.88±0.38", "unit": "pA/pF"}, {"measurement": "inhibition of KCNE1-TMEM16A chloride current", "setting": "[3]; Ani9 300 nM", "result": "inhibited"}, {"measurement": "effect of Ani9 on Nter13-induced TMEM16A current", "setting": "[3]; Ani9 5 μM after Nter13 100 μM, HEK293T expressing TMEM16A alone", "result": "reversion"}]}, {"molecule": "O=C(O)c1cccnc1Nc1cccc(C(F)(F)F)c1", "note": "[NFA, niflumic acid, reference compound]", "values": [{"measurement": "Cl- current density after inhibitor", "setting": "[2]; NFA 100 μM", "result": "4.51±0.28", "unit": "pA/pF"}, {"measurement": "inhibition of KCNE1-TMEM16A chloride current", "setting": "[3]; NFA 100 μM", "result": "inhibited"}]}, {"molecule": "CCc1c(C)nc(SCC(=O)Nc2nc(-c3ccc(OC)cc3)cs2)[nH]c1=O", "note": "[T16Ainh-A01, reference compound]", "values": [{"measurement": "Cl- current density after inhibitor", "setting": "[2]; A01 10 μM", "result": "5.52±0.72", "unit": "pA/pF"}, {"measurement": "inhibition of KCNE1-TMEM16A chloride current", "setting": "[3]; T16A(inh)A01 10 μM", "result": "inhibited"}]}, {"molecule": "KCNE1: human KCNE1 protein of 129 amino acids (NP_000210.2), expressed from cDNA", "values": [{"measurement": "voltage-dependent Cl- current density after rescue", "setting": "[2]; kcne1−/− PCT cells transfected with KCNE1 cDNA, KO 5.37±0.56", "result": "21.59±1.38", "unit": "pA/pF"}, {"measurement": "effect of KCNE1 overexpression on SK4 current", "setting": "[4]", "result": "did not induce any increase"}, {"measurement": "reversal potential", "setting": "[3]; KCNE1 co-expressed with TMEM16A in HEK293T cells", "result": "−4.8±1.3", "unit": "mV"}, {"measurement": "current density at +100 mV", "setting": "[3]; [6]", "result": "18.1±2.8", "unit": "pA/pF"}, {"measurement": "current density at +100 mV", "setting": "[3]; TMEM16A co-expressed with KCNE1, 1 mM BAPTA", "result": "21.98±5.32", "unit": "pA/pF"}]}, {"molecule": "LLAKRGRDSGPSR (SEQ ID NO: 7) (Synthetic scramble peptide) [scrambled control peptide, reference compound]", "values": [{"measurement": "tearing rate at 12 h", "setting": "[1]; 10 mM topical, 5 μl per eye, n=20 eyes, basal 7.65±0.49 mm (N13ter), 8.10±0.54 mm (Scramble)", "result": "6.45±0.34", "unit": "mm"}, {"measurement": "effect on tearing rate", "setting": "[1]; N13ter vs Scramble study, both 10 mM topical", "result": "sustained small decrease"}, {"measurement": "effect of peptide application on TMEM16A current", "setting": "[3]", "result": "no effect"}]}, {"molecule": "S38G: KCNE1 S38G polymorphism variant (full protein, not the hS38G peptide)", "values": [{"measurement": "effect of KCNE1 polymorphism on KCNQ1 regulation", "setting": "[5]", "result": "do not impair the KCNQ1 regulation"}, {"measurement": "current density at +100 mV", "setting": "[3]; [6]", "result": "6.96±0.78", "unit": "pA/pF"}]}, {"molecule": "T7I: KCNE1 disease mutation T7I, not in the regulating domain, control", "values": [{"measurement": "current density at +100 mV", "setting": "[3]; [6]", "result": "24.69±1.57", "unit": "pA/pF"}]}, {"molecule": "hS38G: hS38G peptide (SEQ ID NO: 5), N13 presenting S38G polymorphism (LARRSPRGGDGKL; hN13 S38G) [reference compound]", "values": [{"measurement": "effect of peptide application on TMEM16A current", "setting": "[3]", "result": "no effect"}]}, {"molecule": "rN13: rat N13 peptide (SEQ ID NO: 6) (LARRSQLRDDSKL; amino acid residues between positions 30 to 42 of the rat KCNE1 protein sequence)", "values": [{"measurement": "effect of peptide application on TMEM16A current", "setting": "[3]", "result": "only a small effect"}]}]}
